The record followed here is patent US10479786B2, “Protein kinase inhibitors” (Princeton Drug Discovery Inc, priority 2016, dated 2019).

A value given as a limit tells only on which side of the number the result lay.

One may read the inhibition as how much of the control response was suppressed.

Test in all cases: Off-chip Mobility Shift Assay, kinase inhibition
Holding throughout (format): biochemical

For one assay, the target named is T1, CSK (Homo sapiens, UniProt P41240).
T1 construct: purchased Carna Biosciences, Inc
T1 sequence (P41240 whole entry): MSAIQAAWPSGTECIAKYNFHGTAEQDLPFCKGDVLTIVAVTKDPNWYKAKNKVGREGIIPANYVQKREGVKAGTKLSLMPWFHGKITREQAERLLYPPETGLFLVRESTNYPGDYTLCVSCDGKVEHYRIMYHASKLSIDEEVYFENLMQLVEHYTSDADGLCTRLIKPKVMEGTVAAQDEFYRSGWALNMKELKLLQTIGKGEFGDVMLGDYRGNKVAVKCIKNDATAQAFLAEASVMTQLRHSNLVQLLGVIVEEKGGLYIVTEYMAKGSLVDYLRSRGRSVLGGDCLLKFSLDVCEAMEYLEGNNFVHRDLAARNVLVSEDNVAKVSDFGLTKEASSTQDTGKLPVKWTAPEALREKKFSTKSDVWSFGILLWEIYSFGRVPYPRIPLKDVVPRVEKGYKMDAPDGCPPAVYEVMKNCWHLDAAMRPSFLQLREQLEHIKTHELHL
To be noted: at 10 nM; recombinant CSK.

The target in a further assay is T2, HER4 (Homo sapiens, UniProt Q15303).
T2 construct: purchased Carna Biosciences, Inc
T2 sequence (Q15303 26-1308): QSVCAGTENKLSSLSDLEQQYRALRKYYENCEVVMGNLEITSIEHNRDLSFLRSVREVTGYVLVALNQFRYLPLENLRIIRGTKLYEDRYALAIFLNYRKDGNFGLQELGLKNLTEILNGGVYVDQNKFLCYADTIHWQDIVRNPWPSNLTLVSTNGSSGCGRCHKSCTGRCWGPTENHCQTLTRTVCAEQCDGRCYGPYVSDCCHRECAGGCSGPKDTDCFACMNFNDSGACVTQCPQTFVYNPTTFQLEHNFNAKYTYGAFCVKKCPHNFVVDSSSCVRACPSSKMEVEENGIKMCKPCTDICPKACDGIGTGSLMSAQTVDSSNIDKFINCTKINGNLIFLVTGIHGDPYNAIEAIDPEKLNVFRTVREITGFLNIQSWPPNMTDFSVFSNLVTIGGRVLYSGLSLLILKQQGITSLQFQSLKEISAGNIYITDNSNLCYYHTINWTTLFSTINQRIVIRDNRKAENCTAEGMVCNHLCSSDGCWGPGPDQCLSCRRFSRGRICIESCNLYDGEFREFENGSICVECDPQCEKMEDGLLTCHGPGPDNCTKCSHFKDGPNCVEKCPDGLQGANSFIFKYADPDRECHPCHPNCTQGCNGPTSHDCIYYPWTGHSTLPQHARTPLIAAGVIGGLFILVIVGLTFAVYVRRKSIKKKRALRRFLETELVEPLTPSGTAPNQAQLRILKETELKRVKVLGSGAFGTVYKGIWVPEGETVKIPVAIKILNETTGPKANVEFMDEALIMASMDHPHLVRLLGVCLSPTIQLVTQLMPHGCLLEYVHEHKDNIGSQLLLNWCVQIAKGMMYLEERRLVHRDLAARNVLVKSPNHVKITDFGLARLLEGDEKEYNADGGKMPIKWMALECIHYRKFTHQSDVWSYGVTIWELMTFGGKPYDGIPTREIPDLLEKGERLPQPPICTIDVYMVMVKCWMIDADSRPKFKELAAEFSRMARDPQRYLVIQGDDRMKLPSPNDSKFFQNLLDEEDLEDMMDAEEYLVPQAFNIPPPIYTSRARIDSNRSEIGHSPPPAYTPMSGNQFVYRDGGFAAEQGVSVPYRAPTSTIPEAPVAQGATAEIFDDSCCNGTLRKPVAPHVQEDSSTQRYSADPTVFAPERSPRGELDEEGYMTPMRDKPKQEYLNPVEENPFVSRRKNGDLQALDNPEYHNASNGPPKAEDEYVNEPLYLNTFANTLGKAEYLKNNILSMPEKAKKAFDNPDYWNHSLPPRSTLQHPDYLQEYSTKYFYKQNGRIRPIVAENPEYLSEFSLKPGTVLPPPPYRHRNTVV
To be noted: at 10 nM; recombinant HER4.

The next assay has as its target T3, KIT(D816E) (Homo sapiens, UniProt P10721, D816E).
T3 construct: purchased Carna Biosciences, Inc
The following applies: at 10 nM; recombinant KIT(D816E).

A further assay concerns the target T4, PDGFRα(D842V) (Homo sapiens, UniProt P16234, D842V).
T4 construct: purchased Carna Biosciences, Inc
To be noted: at 10 nM; recombinant PDGFRα(D842V).

For the next assay, the target named is T5, RET(M918T) (Homo sapiens, UniProt P07949, M918T).
T5 construct: purchased Carna Biosciences, Inc
T5 sequence (P07949 29-1114 M918T): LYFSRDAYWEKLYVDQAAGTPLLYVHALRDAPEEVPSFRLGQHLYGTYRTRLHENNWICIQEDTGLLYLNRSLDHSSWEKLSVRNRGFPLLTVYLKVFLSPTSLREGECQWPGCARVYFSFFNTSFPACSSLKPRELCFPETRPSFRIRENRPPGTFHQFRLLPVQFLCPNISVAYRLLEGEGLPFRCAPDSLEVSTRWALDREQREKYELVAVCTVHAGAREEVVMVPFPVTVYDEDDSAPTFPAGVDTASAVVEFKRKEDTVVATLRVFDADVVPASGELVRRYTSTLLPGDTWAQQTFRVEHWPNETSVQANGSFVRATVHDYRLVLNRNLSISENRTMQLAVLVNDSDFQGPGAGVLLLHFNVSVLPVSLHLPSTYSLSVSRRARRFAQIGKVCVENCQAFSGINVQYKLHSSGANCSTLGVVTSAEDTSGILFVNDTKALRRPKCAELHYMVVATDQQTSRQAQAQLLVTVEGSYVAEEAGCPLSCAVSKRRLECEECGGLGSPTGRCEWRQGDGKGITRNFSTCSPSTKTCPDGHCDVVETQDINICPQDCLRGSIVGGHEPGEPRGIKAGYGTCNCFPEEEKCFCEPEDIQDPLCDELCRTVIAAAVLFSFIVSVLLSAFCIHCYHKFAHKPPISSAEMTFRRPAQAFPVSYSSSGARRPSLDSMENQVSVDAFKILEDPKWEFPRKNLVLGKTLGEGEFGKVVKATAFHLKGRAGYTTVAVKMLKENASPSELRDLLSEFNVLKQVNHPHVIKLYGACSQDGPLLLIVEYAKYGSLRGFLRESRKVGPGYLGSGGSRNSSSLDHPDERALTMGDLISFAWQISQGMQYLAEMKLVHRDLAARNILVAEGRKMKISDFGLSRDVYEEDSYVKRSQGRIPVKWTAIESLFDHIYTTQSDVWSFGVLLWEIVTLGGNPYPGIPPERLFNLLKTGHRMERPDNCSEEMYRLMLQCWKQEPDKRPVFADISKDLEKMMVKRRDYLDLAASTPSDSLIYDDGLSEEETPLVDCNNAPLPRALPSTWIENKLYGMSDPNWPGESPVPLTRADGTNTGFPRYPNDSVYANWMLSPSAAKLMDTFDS
The following applies: at 10 nM; recombinant RET(M918T).

A further assay has as its target T6, KDR (Homo sapiens, UniProt P35968).
T6 construct: purchased Carna Biosciences, Inc
To be noted: at 10 nM; recombinant KDR.

The next assay concerns the target T7, EGFR(d746-750/T790M) (Homo sapiens, UniProt P00533, DEL746-750/T790M).
T7 construct: purchased Carna Biosciences, Inc
The following applies: at 10 nM; recombinant EGFR(d746-750/T790M).

T3 sequence (P10721 26-976 D816E): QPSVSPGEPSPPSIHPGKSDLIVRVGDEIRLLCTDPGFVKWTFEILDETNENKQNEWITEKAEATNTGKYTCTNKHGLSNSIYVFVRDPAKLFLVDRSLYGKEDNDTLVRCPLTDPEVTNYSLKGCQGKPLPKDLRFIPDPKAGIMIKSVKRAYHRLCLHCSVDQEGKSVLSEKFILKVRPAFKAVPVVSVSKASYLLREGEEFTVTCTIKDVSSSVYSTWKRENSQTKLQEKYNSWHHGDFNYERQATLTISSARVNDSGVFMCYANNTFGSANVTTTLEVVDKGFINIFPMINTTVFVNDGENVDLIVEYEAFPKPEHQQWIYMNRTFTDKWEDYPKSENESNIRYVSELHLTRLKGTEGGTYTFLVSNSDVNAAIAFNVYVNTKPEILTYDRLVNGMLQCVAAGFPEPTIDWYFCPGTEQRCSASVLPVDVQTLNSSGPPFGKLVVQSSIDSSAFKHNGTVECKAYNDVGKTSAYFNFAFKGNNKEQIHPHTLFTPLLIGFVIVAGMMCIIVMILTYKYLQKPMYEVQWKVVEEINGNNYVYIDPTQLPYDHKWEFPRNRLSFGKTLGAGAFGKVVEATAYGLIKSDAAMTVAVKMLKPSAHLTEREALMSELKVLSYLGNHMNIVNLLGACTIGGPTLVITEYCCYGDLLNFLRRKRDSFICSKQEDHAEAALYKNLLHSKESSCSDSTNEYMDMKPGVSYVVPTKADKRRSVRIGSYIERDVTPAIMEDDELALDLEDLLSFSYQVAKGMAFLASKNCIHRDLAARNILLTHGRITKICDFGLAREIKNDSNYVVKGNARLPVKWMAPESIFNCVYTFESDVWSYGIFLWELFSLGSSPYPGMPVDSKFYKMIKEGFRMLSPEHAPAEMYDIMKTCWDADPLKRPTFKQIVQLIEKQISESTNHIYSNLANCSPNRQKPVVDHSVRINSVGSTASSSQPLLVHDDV
T7 sequence (P00533 with tags, fused parts or gaps DEL746-750/T790M limits assumed): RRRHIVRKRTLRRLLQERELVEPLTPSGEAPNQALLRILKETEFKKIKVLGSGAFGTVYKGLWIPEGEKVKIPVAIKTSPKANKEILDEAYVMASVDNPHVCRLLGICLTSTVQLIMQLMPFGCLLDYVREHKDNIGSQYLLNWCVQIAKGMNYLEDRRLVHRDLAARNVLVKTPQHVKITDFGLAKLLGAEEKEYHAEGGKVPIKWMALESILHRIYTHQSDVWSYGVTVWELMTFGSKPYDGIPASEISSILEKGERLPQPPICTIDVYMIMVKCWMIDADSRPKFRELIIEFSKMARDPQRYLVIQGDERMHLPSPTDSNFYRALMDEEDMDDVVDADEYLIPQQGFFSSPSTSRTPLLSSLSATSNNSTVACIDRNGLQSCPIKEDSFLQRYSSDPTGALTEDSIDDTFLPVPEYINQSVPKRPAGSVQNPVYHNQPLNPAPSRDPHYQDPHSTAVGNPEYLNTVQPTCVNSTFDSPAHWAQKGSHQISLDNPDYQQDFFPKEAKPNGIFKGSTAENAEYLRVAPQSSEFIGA

With `[2H]c1cc(C)c(NC(=O)c2cnc(Nc3cc(N4CCCCC4)nc(C)n3)s2)c(Cl)c1` [Compound I, N-(2-chloro-4-deuterio-6-methyl-phenyl)-2-[[2-methyl-6-(1-piperidyl)pyrimidin-4-yl]amino]thiazole-5-carboxamide], the inhibition at 0.01 µM at CSK is over 50%; at HER4, under 50%; on KIT(D816E) it was under 50%; at PDGFRα(D842V), under 50%; at RET(M918T), under 50%; at KDR, under 50%. The inhibition at 0.01 µM at EGFR(d746-750/T790M) was under 50%.
